For one series, the system named is Tagia sp. Particulars: acute; duration: 14 days; mortality.
The test system of another series is Pimephales promelas. Particulars: chronic/long-term; duration: 33 days; growth.
A further series concerns Typhlodromus pyri. Particulars: acute; duration: 14 days; reproduction.
Another series has as its system Colinus virginianus. To be noted: oral.
The next series concerns Daphnia magna. To be noted: chronic/long-term; duration: 21 days; mobility.
The next series deals with Anas platyrhynchos. Particulars: reproductive.
Another series concerns Rattus norvegicus. Particulars: for NOAEL: reproduction developmental.
The test system of the next series is Apis mellifera. Particulars: acute, duration: 48 hours, mortality.
In a further series the test system is Canidae. Particulars: chronic; duration: 1 years; oral; Dog Other; body weight.
The test system of another series is Lepomis macrochirus. Particulars: acute; duration: 96 hours; mortality.

Each structure is given as a SMILES string. In brackets after ≈: the same amount, converted by molar mass.

Usually NOAEL stands for the highest dose or exposure tested at which no adverse effect was seen. On to `N#CC(CCc1ccc(Cl)cc1)(Cn1cncn1)c1ccccc1` (centres undefined), for which the results for the LC50 with Tagia sp. and with Lepomis macrochirus were over 100 mg/kg and 0.68 µg/mL (≈ 2.02 µM), respectively. Also, the figures for the NOEC with Pimephales promelas, in the series on Daphnia magna and in the series on Anas platyrhynchos were 0.023 mg/L, 0.078 mg/L and 21 mg/kg-day, respectively. The same compound yielded an LEL in the series with Typhlodromus pyri of 63 g/ha. Moreover, the LD50 with Colinus virginianus (acute, mortality) was over 2150 mg/kg-day; in the series on Rattus norvegicus (acute, oral, mortality), over 5000 mg/kg-day; with Apis mellifera (dermal), over 5.5 µg/piece; in the series on Apis mellifera (oral, unspecified) it was over 5.2 µg/piece. In the series on Colinus virginianus (short-term, diet, food consumption), this compound came in with an NOEL of 111 mg/kg-day. For the same compound, the no-observed-adverse-effect level (NOAEL) in the series on Rattus norvegicus (body weight) worked out at 30 mg/kg-day; in the series with Rattus norvegicus (reproduction), 5 mg/kg-day; in the series on Canidae it was 0.62 mg/kg-day.

Source of the values: EPA's ToxValDB 9.5 (doi:10.2903/j.efsa.2010.1558).
